Laboratory results taken from ChEMBL document CHEMBL1128040, “Acyl CoA:cholesterol acyltransferase (ACAT) inhibitors: heterocyclic bioisosteres for the urea group in DuP 128” (Bioorg Med Chem Lett, 1995).
pIC50: −log10 of the molar value.

Experiments:
[1] = target: T1, Sterol O-acyltransferase 1 (Mus musculus, UniProt Q61263); assay: Inhibition of Acyl coenzyme A:cholesterol acyltransferase in J774 Macrophage cell culture; assay type: cell-based
T1 sequence (Q61263 whole entry): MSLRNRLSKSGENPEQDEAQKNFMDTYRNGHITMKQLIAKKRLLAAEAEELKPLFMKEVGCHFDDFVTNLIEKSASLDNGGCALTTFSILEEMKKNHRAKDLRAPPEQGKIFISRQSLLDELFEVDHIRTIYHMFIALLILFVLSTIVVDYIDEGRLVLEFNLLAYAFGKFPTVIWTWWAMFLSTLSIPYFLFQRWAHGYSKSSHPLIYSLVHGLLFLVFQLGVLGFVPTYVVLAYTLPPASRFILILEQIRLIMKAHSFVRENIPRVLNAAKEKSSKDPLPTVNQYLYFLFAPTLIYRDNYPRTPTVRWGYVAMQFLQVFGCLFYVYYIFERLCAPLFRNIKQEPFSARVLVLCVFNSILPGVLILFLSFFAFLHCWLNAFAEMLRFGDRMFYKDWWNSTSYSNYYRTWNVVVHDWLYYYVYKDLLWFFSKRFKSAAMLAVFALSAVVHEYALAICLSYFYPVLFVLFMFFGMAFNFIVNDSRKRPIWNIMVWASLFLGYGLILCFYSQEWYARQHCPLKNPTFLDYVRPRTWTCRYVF

[2] = target: T2, Sterol O-acyltransferase 1 (Rattus norvegicus, UniProt O70536); assay: In vitro inhibition of Acyl coenzyme A:cholesterol acyltransferase in rat hepatic microsomes was measured by using AIV assay; parameters: species or system Liver
T2 sequence (O70536 whole entry): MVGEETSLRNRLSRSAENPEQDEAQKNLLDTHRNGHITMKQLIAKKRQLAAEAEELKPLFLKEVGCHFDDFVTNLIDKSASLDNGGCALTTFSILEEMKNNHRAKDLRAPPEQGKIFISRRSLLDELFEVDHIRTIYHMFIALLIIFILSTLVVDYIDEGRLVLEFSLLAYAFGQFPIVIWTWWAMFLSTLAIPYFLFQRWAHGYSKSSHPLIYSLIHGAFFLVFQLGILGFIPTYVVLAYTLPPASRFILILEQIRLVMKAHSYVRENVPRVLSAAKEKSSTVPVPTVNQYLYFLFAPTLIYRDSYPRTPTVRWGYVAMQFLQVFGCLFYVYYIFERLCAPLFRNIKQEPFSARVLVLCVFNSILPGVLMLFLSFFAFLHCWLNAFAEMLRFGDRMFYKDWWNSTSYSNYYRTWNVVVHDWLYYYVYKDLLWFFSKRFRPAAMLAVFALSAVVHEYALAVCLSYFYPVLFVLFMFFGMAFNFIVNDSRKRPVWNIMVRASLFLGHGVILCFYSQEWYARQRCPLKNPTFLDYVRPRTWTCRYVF

Cricetinae gen. sp. [3] = assay: Tested for effective dose required to lower the serum cholesterol levels in hamsters; assay type: functional, Cricetulus griseus
Cricetinae gen. sp. [4] = assay: In vivo cholesterol lowering at a single dose of 25 mg/kg in the hamster was determined; assay type: functional, Cricetulus griseus

Q: `COc1ccc(-c2nc(SCCCCCSc3nc4ccccc4[nH]3)[nH]c2-c2ccc(OC)cc2)cc1` was tested. Which pIC50 [1] did it give?
A: The pIC50 was 6.08.

Q: What about the pIC50 [2] of the same compound?
A: The pIC50 was 6.20.

Q: `Cc1cc(C)n(CCCCCSc2nc(-c3ccc(N(C)C)cc3)c(-c3ccc(N(C)C)cc3)[nH]2)n1` was tested. Which pIC50 [1] did it give?
A: The pIC50 was 6.60.

Q: Which results are given for `CCN(CCCCCSc1nc(-c2ccccc2)c(-c2ccc(SC)cc2)[nH]1)c1nc2ccccc2o1`?
A: pIC50 [1]: 6.30; pIC50 [2]: 6.15

Q: How did the pIC50 [1] turn out when `COc1ccc(-c2nc(SCCCCCSc3nc(-c4ccc(OC)cc4)c(-c4ccc(OC)cc4)[nH]3)[nH]c2-c2ccc(OC)cc2)cc1` was run?
A: The pIC50 was 6.70.

Q: And the pIC50 [2]?
A: Its pIC50 is 6.66.

Q: With `CC(CCCSc1nc(-c2ccccc2)c(-c2ccccc2)[nH]1)(CNc1nc2ccccc2o1)c1ccccc1` (configuration not stated) as the compound, how does the pIC50 [1] read?
A: The pIC50 was 5.30.

Q: What does the source list for `CCCCCCCN(CCCCCSc1nc(-c2ccccc2)c(-c2ccccc2)[nH]1)C(=O)Nc1ccc(F)cc1F` [LECIMIBIDE]?
A: pIC50 [1]: 6.00; ED50 (Cricetinae gen. sp. [3]): 3 mg/kg

Q: `COc1ccc(-c2nc(SCCCCCSc3nc4ncncc4[nH]3)[nH]c2-c2ccc(OC)cc2)cc1` was tested. Which pIC50 [1] did it give?
A: The pIC50 was 6.06.

Q: How did the pIC50 [1] turn out when `CCCCCCCN(CCCCCSc1nc(-c2ccccc2)c(-c2ccccc2)[nH]1)c1nc2ccccc2o1` was run?
A: The pIC50 was 7.70.

Q: What about the Activity (Cricetinae gen. sp. [4]) of the same compound?
A: Its Activity is 30%.

Q: What about the pIC50 [2] of the same compound?
A: Its pIC50 is 6.52.

Q: How did the pIC50 [1] turn out when `COc1ccc(-c2nc(SCCCCCn3c4ccccc4c4ccccc43)[nH]c2-c2ccc(OC)cc2)cc1` was run?
A: The pIC50 was 4.25.

Q: What about the pIC50 [2] of the same compound?
A: Its pIC50 is 4.30.

Q: How did the pIC50 [1] turn out when `CN(C)c1ccc(-c2nc(SCCCCCSc3nc(-c4ccc(N(C)C)cc4)c(-c4ccc(N(C)C)cc4)[nH]3)[nH]c2-c2ccc(N(C)C)cc2)cc1` was run?
A: The pIC50 was 7.22.

Q: What about the pIC50 [2] of the same compound?
A: Its pIC50 is 7.05.

Q: With `CCCCN(CCCCCSc1nc(-c2ccc(OC)cc2)c(-c2ccc(OC)cc2)[nH]1)c1nc2cc(Cl)c([N+](=O)[O-])cc2o1` as the compound, how does the pIC50 [1] read?
A: Its pIC50 is 6.00.

Q: Which results are given for `CCCCCCCN(CCCCCSc1nc(-c2ccc(OC)cc2)c(-c2ccc(OC)cc2)[nH]1)c1nc2ccccc2[nH]1`?
A: pIC50 [1]: 6.31; pIC50 [2]: 7.05

Q: With `COc1ccc(-c2nc(SCC(C)(CSc3nc4ccccc4o3)c3ccccc3)[nH]c2-c2ccc(OC)cc2)cc1` (configuration not stated) as the compound, how does the pIC50 [1] read?
A: Its pIC50 is 5.49.

Q: Which results are given for `COc1ccc(-c2nc(SCCCCCn3c(C(C)C)nc4ccccc43)[nH]c2-c2ccc(OC)cc2)cc1`?
A: pIC50 [1]: 6.49; pIC50 [2]: 6.64

Q: How did the pIC50 [1] turn out when `COc1ccc(-c2nc(SCCCCCn3c(Nc4ccccc4)nc4ccccc43)[nH]c2-c2ccc(OC)cc2)cc1` was run?
A: Its pIC50 is 6.19.

Q: What about the pIC50 [2] of the same compound?
A: Its pIC50 is 6.12.

Q: `CCCCCCCN(CCCCSc1nc(-c2ccc(OC)cc2)c(-c2ccc(OC)cc2)[nH]1)c1nc2ccccc2o1` was tested. Which pIC50 [1] did it give?
A: The pIC50 was 6.30.

Q: How did the pIC50 [1] turn out when `CCCCN(CCCCCSc1nc(-c2ccc(OC)cc2)c(-c2ccc(OC)cc2)[nH]1)c1nc2cc(C(C)(C)C)ccc2o1` was run?
A: The pIC50 was 7.15.

Q: What about the pIC50 [2] of the same compound?
A: The pIC50 was 7.10.

Q: How did the pIC50 [1] turn out when `CCN(CCCCCSc1nc(-c2ccc(N(C)C)cc2)c(-c2ccc(N(C)C)cc2)[nH]1)c1nc2ccccc2o1` was run?
A: The pIC50 was 7.30.

Q: How did the pIC50 [1] turn out when `COc1ccc(-c2nc(SCCCCCSc3nc4c([nH]3)c(=O)n(C)c(=O)n4C)[nH]c2-c2ccc(OC)cc2)cc1` was run?
A: Its pIC50 is 5.08.

Q: `c1ccc(-c2nc(SCCCCCSc3nc(-c4ccccc4)c(-c4ccccc4)[nH]3)[nH]c2-c2ccccc2)cc1` was tested. Which pIC50 [1] did it give?
A: Its pIC50 is 5.16.

Q: What about the pIC50 [2] of the same compound?
A: The pIC50 was 7.52.

Q: `c1ccc(-c2nc(SCc3cccc(C4(CNc5nc6ccccc6o5)CCCC4)c3)[nH]c2-c2ccccc2)cc1` was tested. Which pIC50 [1] did it give?
A: Its pIC50 is 5.23.

Q: How did the pIC50 [1] turn out when `CC(C)c1nc2ccccc2n1CCCCCSc1nc(-c2ccc(N(C)C)cc2)c(-c2ccc(N(C)C)cc2)[nH]1` was run?
A: Its pIC50 is 7.10.

Q: What about the pIC50 [2] of the same compound?
A: Its pIC50 is 6.40.

Q: `CN(C)c1ccc(-c2nc(SCCCCCNc3nc4ccccc4o3)[nH]c2-c2ccc(N(C)C)cc2)cc1` was tested. Which pIC50 [1] did it give?
A: Its pIC50 is 7.05.

Q: With `c1ccc(-c2nc(SCCCCCSc3ncnc4nc[nH]c34)[nH]c2-c2ccccc2)cc1` as the compound, how does the pIC50 [1] read?
A: Its pIC50 is 5.12.

Q: What does the source list for `CC(C)c1nc2ccccc2n1CCCCCSc1nc(-c2ccccc2)c(-c2ccccc2)[nH]1`?
A: pIC50 [1]: 6.15; pIC50 [2]: 6.16

Q: What does the source list for `CCN(CCCCCSc1nc(-c2ccc(OC)cc2)c(-c2ccc(OC)cc2)[nH]1)c1nc2ccccc2o1`?
A: pIC50 [1]: 7.05; pIC50 [2]: 6.85

Q: How did the pIC50 [1] turn out when `CCCCN(CCCCCSc1nc(-c2ccc(OC)cc2)c(-c2ccc(OC)cc2)[nH]1)c1nc2ccccc2o1` was run?
A: Its pIC50 is 7.15.

Q: And the pIC50 [2]?
A: The pIC50 was 7.10.

Q: With `COCCOCCN(CCCCCSc1nc(-c2ccc(OC)cc2)c(-c2ccc(OC)cc2)[nH]1)c1nc2ccccc2o1` as the compound, how does the pIC50 [1] read?
A: Its pIC50 is 7.10.

Q: And the pIC50 [2]?
A: The pIC50 was 7.40.

Q: What does the source list for `CCCCCCCN(CCCCCSc1nc(-c2ccc(OC)cc2)c(-c2ccc(OC)cc2)[nH]1)c1nc2ccccc2o1`?
A: pIC50 [1]: 7.10; pIC50 [2]: 7.40

Q: With `CCCCCCCN(CCCCCSc1nc(-c2ccccc2)c(-c2ccccc2)[nH]1)c1nc2ccccc2s1` as the compound, how does the pIC50 [1] read?
A: Its pIC50 is 6.18.

Q: How did the pIC50 [1] turn out when `COc1ccc(-c2nc(SCCCCCn3c(SC)nc4ccccc43)[nH]c2-c2ccc(OC)cc2)cc1` was run?
A: The pIC50 was 6.02.

Q: And the pIC50 [2]?
A: Its pIC50 is 5.85.

Q: How did the pIC50 [1] turn out when `COc1ccc(-c2nc(SCCCCCSc3ncnc4nc[nH]c34)[nH]c2-c2ccc(OC)cc2)cc1` was run?
A: The pIC50 was 5.44.
